Measurements taken from ChEMBL document CHEMBL1128157, “Stereochemical differentiation of anticonvulsant and antihypertensive effects in 4-(fluorobenzoylamino)-benzopyrans” (1995).

test system: Mus musculus; assay: Increase in threshold voltage (applied via a subcutaneous and a buccal electrode) for inducing tonic hind limb extension seizures in 50% (CV50) in mouse MEST model at a dose of 10 mg/kg orally; assay type: functional, Hindlimb; conditions: route oral

Structure (SMILES)	Change [%]
CC1(C)Oc2ccc(C#N)cc2[C@H](NC(=O)c2ccc(F)cc2)[C@H]1O	41
CC1(C)Oc2ccc(C#N)cc2[C@@H](NC(=O)c2ccc(F)cc2)[C@@H]1O	17
CC1(C)Oc2ccc(C#N)cc2C(NC(=O)c2ccccc2)[C@@H]1O (stereo partly specified)	29
CC1(C)Oc2ccc(C#N)cc2[C@H](NC(=O)c2cccc(F)c2)[C@H]1O	50
CC1(C)Oc2ccc(C#N)cc2[C@@H](NC(=O)c2cccc(F)c2)[C@@H]1O	12
CC(C)(C)c1ccc2c(c1)C(N1CCCC1=O)[C@H](O)C(C)(C)O2 (stereo partly specified)	12
CC1(C)C=C(N2CCCC2=O)c2cc(C#N)ccc2O1	4
CC1(C)Oc2ccc(C#N)cc2C(NC(=O)c2ccc(F)cc2)[C@@H]1O (stereo partly specified)	49

test system: Mus musculus; assay: Dose required to produce a 50% elevation in seizure threshold after oral administration; assay type: functional; conditions: not given

Structure (SMILES)	ED50 [mg/kg]
NC(=O)N1c2ccccc2C=Cc2ccccc21 [CARBAMAZEPINE]	12.7
CCC1(c2ccccc2)C(=O)NC(=O)NC1=O [PHENOBARBITAL]	10.6

test system: Mus musculus; assay: Change in threshold voltage (applied via a subcutaneous and a buccal electrode) for inducing tonic hind limb extension seizures in 50% (CV50) in mouse MEST model at a dose of 10 mg/kg orally; assay type: functional, Hindlimb; conditions: route oral

Structure (SMILES)	Change [%]
CC1(C)Oc2ccc(C(F)(F)F)cc2C(NC(=O)c2ccc(F)cc2)[C@@H]1O (stereo partly specified)	33
CC1(C)Oc2ccncc2C(NC(=O)c2ccc(F)cc2)[C@@H]1O (stereo partly specified)	5
CC1(C)Oc2ccc(C#N)cc2C(N2CCCC2=O)C1O (racemic) [CROMAKALIM]	4

test system: Mus musculus; assay: Change in threshold voltage (applied via a subcutaneous and a buccal electrode) for inducing tonic hind limb extension seizures in 50% (CV50) in mouse MEST model at a dose of 30 mg/kg orally; assay type: functional, Hindlimb; conditions: route oral

Structure (SMILES)	Change [%]
CC1(C)Oc2ccc(-c3ccccc3)cc2C(NC(=O)c2ccc(F)cc2)[C@@H]1O (stereo partly specified)	20
CN(C(=O)c1ccc(F)cc1)C1c2cc(C#N)ccc2OC(C)(C)[C@H]1O (stereo partly specified)	26
CC1(C)Oc2ccc(C#N)cc2C(NC(=O)c2ccc(C#N)cc2)[C@@H]1O (stereo partly specified)	7
CC1(C)Oc2ccccc2C(NC(=O)c2ccc(F)cc2)[C@@H]1O (stereo partly specified)	13
CC(C)c1ccc2c(c1)C(NC(=O)c1ccc(F)cc1)[C@H](O)C(C)(C)O2 (stereo partly specified)	19
COc1ccc2c(c1)C(NC(=O)c1ccc(F)cc1)[C@H](O)C(C)(C)O2 (stereo partly specified)	28
CC1(C)Oc2ccc(C#N)cc2C(NC(=O)c2ccc(O)cc2)[C@@H]1O (stereo partly specified)	-2

test system: Mus musculus; assay: Change in threshold voltage (applied via a subcutaneous and a buccal electrode) for inducing tonic hind limb extension seizures in 50% (CV50) in mouse MEST model at a dose of 10 mg/kg intraperitoneally 30 min pretest; assay type: functional, Hindlimb; conditions: not given

Structure (SMILES)	Change [%]
CC1(C)Oc2ccc(C#N)cc2C(N2CCCC2=O)C1O (racemic) [CROMAKALIM]	-16
